{"source": "patent US20110045100A1", "about": "“Antimalarial Quinolines and Methods of Use Thereof” (GEORGETOWN UNIVERSITY, priority 2008, published 2011)", "key": {"monomeric heme": {"tested_on": "monomeric heme", "experiment": "Heme affinity measurement, monomeric heme", "format": "binding", "conditions": "acidic 40% DMSO", "experimental": "To test whether binding to Hz precursors is also altered for the 4S and 4O derivatives, binding constants were measured as previously described for both μ-oxo dimeric and monomeric heme (FIG. 25). […] J. Am. Chem. Soc. 1988, 110, 4391-4395; Egan, T. J.; Mavuso, W. W.; Ross, D. C.; Marques, H. M. Thermodynamic factors controlling the interaction of quinoline antimalarial drugs with ferriprotoporphyrin IX. J. Inorg. Biochem. 1997, 68, 137-145; and Egan, T. J.; Ncokazi, K. K. Effects of solvent composition and ionic strength on the interaction of quinoline antimalarials with ferriprotoporphyrin IX. J. Inorg. Biochem. 2004, 98, 144-152. Due to the instability of monomeric heme in aqueous solution, the affinity to monomer measured by conventional absorbance experiments can only be estimated using 40% DMSO in water as solvent. Egan, T. J.; Ncokazi, K. K. Effects of solvent composition and ionic strength on the interaction of quinoline antimalarials with ferriprotoporphyrin IX. J. Inorg. Biochem. 2004, 98, 144-152. At appropriately acidic solution pH (≦5.0) FPIX heme is primarily monomeric, whereas at pH 7, appreciable dimer is formed. As shown (FIG. 25), CQ and compounds 88, 93, and 98 all have poor affinity for monomeric heme in acidic 40% DMSO. To further test if CQ interacts with monomeric heme, T1 measurements of the CQ protons were made with samples containing 10 mM CQ and 2 mM hemin chloride in 40% DMSO at pH 5.0. Although the lines are broadened in this solution due to paramagnetic susceptibility, the measured T1's indicate only weak paramagnetic relaxation. For example, the measured T1 for CQ proton 1 in this sample is 0.70 s, whereas at pH 7.0 the T1 for the same proton is 0.039 s.\nTo measure affinity for monomeric heme, 1.2 mM stock solutions of hemin (sodium salt from Sigma-Aldrich) were prepared in DMSO and stored as […] aliquots. 4.8 μM working solutions were prepared in 40% DMSO/phosphate buffer (fresh stocks prepared daily). Stock solutions of CQ and CQ analogues (diphosphate or dihydrochloride salts) were prepared in 40% DMSO/phosphate buffer and used for the titration experiments (all drugs dilutions were prepared in the same buffer).\n1.5 mL cuvettes containing freshly prepared samples of 4.8 μM heme were titrated with increasing concentrations (0-50 μM) of drug. Following each addition, the sample was mixed and heme absorbance then recorded at 402 nm. Control experiments were performed by titrating 4.8 μM heme with similar volumes of solvent and no drug present. […] The absorbance peak analysis was done using Microsoft excel and Ka were extracted from the ΔAbs402 plots via Scatchard analysis using Microsoft Excel and Sigma plot 9.0.1 software."}, "[1]": {"tested_on": "CQS (HB3, GCO3) and CQR (Dd2, FCB) strains of P. falciparum", "experiment": "SYBR Green I antiplasmodial assay, several CQS and CQR strains", "format": "cell-based, Plasmodium falciparum", "conditions": "Plasmodium falciparum; read-out: IC50 vs. CQR parasites", "text": "Bennett T. N.; Paguio, M.; Gligorijevic, B.; Seudieu, C.; Kosar, A. D.; Davidson, E.; Roepe, P. D. Novel, rapid, and inexpensive cell-based quantification of antimalarial drug efficacy. Antimicrob. Agents Chemother. 2004, 48, 1807-1810; Smilkstein, M.; Sriwilaijaroen, N.; Kelly, J. X.; Wilairat, P.; Riscoe, M. Simple and inexpensive fluorescence-based technique for high-throughput antimalarial drug screening. Antimicrob. Agents Chemother. 2004, 48, 1803-1806; and Johnson, J. D.; Dennull, R. A.; Gerena, L.; Lopez-Sanchez, M.; Roncal, N. E.; Waters, N.C. Assessment and continued validation of the malaria SYBR green I-based fluorescence assay for use in malaria drug screening. Antimicrob. Agents Chemother. 2007, 51, 1926-1933. […] Drake, N. L.; Creech, H. J.; Garman, J. A.; Haywood, S. T.; Peck, R. M.; van Hook, J. O.; Walton, E. Synthetic antimalrials. The preparation of certain 4-aminoquinolines. J. Am. Chem. Soc. […] Trans. R. Soc. Trop. Med. Hyg. […] J. Parasitol. 1983, 69, 97-105. The selectivity index provides a quantitative measure of the antimalarial activity against CQR strains relative to that against sensitive strains and thus indicates promising drug discovery leads. […] This can be combined with the introduction of a third basic amino function which should further favor accumulation of the drug within the acidic food vacuole of the parasite.\nBennett T. N.; Paguio, M.; Gligorijevic, B.; Seudieu, C.; Kosar, A. D.; Davidson, E.; Roepe, P. D. Novel, rapid, and inexpensive cell-based quantification of antimalarial drug efficacy. Antimicrob. Agents Chemother. 2004, 48, 1807-1810; Smilkstein, M.; Sriwilaijaroen, N.; Kelly, J. X.; Wilairat, P.; Riscoe, M. Simple and inexpensive fluorescence-based technique for high-throughput antimalarial drug screening. Antimicrob. Agents Chemother. 2004, 48, 1803-1806; and Johnson, J. D.; Dennull, R. A.; Gerena, L.; Lopez-Sanchez, M.; Roncal, N. E.; Waters, N.C. Assessment and continued validation of the malaria SYBR green I-based fluorescence assay for use in malaria drug screening. Antimicrob. Agents Chemother. 2007, 51, 1926-1933.\nDrug activities were assessed and IC50 were quantified essentially as described previously. Delarue, S.; Girault, S.; Maes, L.; Debreu-Fontaine, M. A.; Labaeid, M.; Grellier, P.; Sergheraert, C. Synthesis and in vitro and in vivo antimalarial activity of new 4-anilinoquinolines. J. Med. Chem. 2001, 44, 2827-2833; and O'Neill, P. M.; Willock, D. J.; Hawley, S. R.; Bray, P. G.; Storr, R. C.; Ward, S. A.; Park, B. K. Synthesis, antimalarial activity, and molecular modeling of tebuquine analogues. J. Med. Chem. 1997, 40, 437-448."}}}
{"smiles": "CCN(CC)CCCCOc1ccnc2cc(Cl)ccc12", "note": "[compound 93, O-(7-Chloro-4-quinolyl)-4-(N,N-diethylamino)butanol]", "values": [{"measurement": "affinity for monomeric heme", "setting": "monomeric heme", "value": "poor affinity"}, {"measurement": "IC50", "setting": "[1]", "value": "~1000", "unit": "nM"}]}
